Results on one compound are retold here after US8653046B2, “Controlling transgene expression across the skin” (ETH Zurich, priority 2009, dated 2014).

For data set [1], the system named is CHO-K1. Description: Toxicity of flavonoids: CHO-K1 transiently transfected with pSEAP2-Control, SEAP levels after 48 h. Conditions: 0, 25, 50 μM, genistein cytotoxic only at 50 μM. Here is the method:
(A) Toxicity of flavonoids. CHO-K1 are transiently transfected with pSEAP2-Control, and cultivated in medium supplemented with different flavonoids (0, 25, 50 μM). SEAP levels are scored after 48 h.
CHO-K1 are transiently (co-)transfected with either pMG10 (PTtgR1-SEAP-pA) and pMG11 (PSV40-TtgA1-pA), to score regulation performance, or with pSEAP2-Control (PSV40-SEAP-pA), to assess compound-related cytotoxicity, and then cultivated for 48 h in medium containing different concentrations (0, 25, 50 μM) of specific flavonoid type compounds (berberine, butylparaben, genistein, luteolin, β-naphthol, naringenin, phloretin, phloridzin or quercetin) before SEAP production is profiled (FIG. 5A).
Wild-type Chinese hamster ovary cells (CHO-K1, ATCC: CCL-61) and their derivatives are cultivated in standard medium: ChoMaster® HTS (Cell Culture Technologies, Gravesano, Switzerland) supplemented with 5% (v/v) fetal calf serum (FCS, PAN Biotech GmbH, Aidenbach, Germany, Cat. No. 3302, Lot No. P251110) and 1% (v/v) penicillin/streptomycin solution (Sigma, St Louis, Mo., USA, Cat. No. P4458). Human embryonic kidney cells (HEK-293, Mitta B., et al., 2002, Nucleic Acids Res 30(21):e113), African green monkey kidney cells (COS-7, ATCC: CRL-1651), baby hamster kidney cells (BHK-21, ATCC: CCL10), human fibrosarcoma cells (HT-1080, ATCC: CCL-121), the human keratinocyte cell line HaCaT (Boukamp P., et al., 1988, J Cell Biol 106(3):761-771) and mouse fibroblasts (NIH/3T3, ATCC: CRL-1658) are cultured in Dulbecco's modified Eagle's medium (DMEM; Invitrogen, Cat. No. 52100-39) supplemented with 10% FCS (v/v) and 1% (v/v) penicillin/streptomycin solution. Primary human foreskin fibroblasts are cultivated in DMEM supplemented with 20% FCS (v/v) and 1% (v/v) penicillin/streptomycin solution and primary human foreskin keratinocytes are cultured in chemically defined serum-free keratinocyte medium (Invitrogen, Cat. No. 10744019). All cell types are cultivated at 37° C. in a 5% CO2-containing humidified atmosphere. For transient transfection of CHO-K1, 1 μg of total plasmid DNA (for co-transfection an equal amount of each plasmid) is transfected into 50,000 cells per well of a 24-well plate according to an optimized calcium phosphate protocol (Greber D., Fussenegger M., 2007, Biotechnol Bioeng 96(5):821-834). Plasmid DNA is diluted to a total volume of 25 μL 0.5 M CaCl2 solution, which is mixed with 25 μL 2×HBS solution (50 mM HEPES, 280 mM NaCl, 1.5 mM Na2HPO4, pH 7.1). After incubation for 15 min at room temperature, the precipitates are immediately added to the well and centrifuged onto the cells (5 min at 1,200×g) to increase transfection efficiency. After 3 h, the cells are treated with 0.5 mL glycerol solution (ChoMaster® HTS medium containing 15% glycerol) for 60 sec. After washing once with phosphate-buffered saline (PBS, Dulbecco's Phosphate-Buffered Saline; Invitrogen, Cat. No. 21600-0069), cells are cultivated in 0.5 mL standard ChoMaster® HTS medium in the presence or absence of different concentrations of phloretin. For transfection of BHK-21, COS-7 and HEK-293, plasmid DNA-Ca2PO4 precipitate is prepared and applied to the cells as described above. HEK-293 and COS-7 cells are washed once with PBS after 3 h incubation with the DNA-Ca2PO4 precipitate and subsequently cultivated in standard DMEM, while BHK-21 cells are incubated overnight with the precipitates and then cultivated in DMEM medium after being washed once with PBS. […]

For data set [2], the target named is TtgA1 (TtgR-VP16) (Pseudomonas putida, UniProt Q9AIU0). Nature of the data set: Compatibility test: phloretin-responsive SEAP production of CHO-PEACE8. On the set-up: expressed in transfected cells; host or cells: CHO-K1 (transient pMG11 or pMG13); also HEK-293, BHK-21, COS-7, HaCaT, HT-1080, NIH/3T3, primary human fibroblasts and keratinocytes. The class given is cell-based, Pseudomonas putida DOT-T1E. Conditions: Phl 50 μM, 48 h, 100 = no inducer. The source says:
To evaluate the functional compatibility of PEACE with the established tetracycline— [TETOFF; Gossen M., Bujard H., 1992, Proc Natl Acad Sci USA 89(12):5547-5551] and macrolide— [EOFF; Weber W., et al., 2002, Nat Biotechnol 20(9):901-907] responsive expression circuits CHO-PEACE8 is transiently transfected, transgenic for phloretin-responsive SEAP expression, with either the TETOFF-(pSAM200, PSV40-tTA-pA; pBP99, PhCMV*-1-SAMY-pA) or the EOFF-(PWW35, PSV40-ET1-pA; pBP100, PETR3-SAMY-pA) system set to control the Bacillus stearothermophilus-derived secreted α-amylase (SAMY) in response to tetracycline and erythromycin, respectively. SEAP and SAMY expression are scored 48 h after cultivation of the transfected populations in the presence (50 μM; 2 μg/mL) or absence of the inducer molecules (phloretin, tetracycline, erythromycin).
The stable CHO-PEACE8 cell line, transgenic for phloretin-controlled SEAP expression, is constructed in two steps: (i) CHO-K1 cells are co-transfected with pMG11 (PSV40-TtgA1-pA) and pSV2neo (Clontech, Cat. No. 6172-1) at a ratio of 20:1 and clonal selection results in the cell line CHO-TtgA. (ii) CHO-TtgA is co-transfected with pMG10 (PTtgR1-SEAP-pA) and pPur (Clontech, Cat. No. 6156-1) (ratio of 20:1) and the phloretin-responsive SEAP-producing double-transgenic cell line CHO-PEACE8 is chosen after clonal selection. […] Reversibility of phloretin-mediated SEAP production is assessed by cultivating CHO-PEACE8 (100,000 cells/mL) for 144 h while alternating phloretin concentrations from 0 to 50 μM every 48 h.

Chain of TtgA1 (TtgR-VP16) (Q9AIU0 whole entry, added parts left off): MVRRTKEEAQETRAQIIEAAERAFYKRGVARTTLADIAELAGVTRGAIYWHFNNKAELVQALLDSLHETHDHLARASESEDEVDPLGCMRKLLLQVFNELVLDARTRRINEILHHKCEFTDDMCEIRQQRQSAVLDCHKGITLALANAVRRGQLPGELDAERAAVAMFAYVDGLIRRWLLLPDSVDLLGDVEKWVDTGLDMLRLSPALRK

As for `O=C(CCc1ccc(O)cc1)c1c(O)cc(O)cc1O` [phloretin, 3-[4-hydroxyphenyl]-1-[2,4,6-trihydroxyphenyl]-1-propanone], in data set [1], the “compound-related cytotoxicity / cell viability” value is given as “do not reduce cell viability”. Moreover, the “Relative SEAP Production (%)” value in data set [2] (CHO-PEACE8 transiently transfected with macrolide-responsive control system, EM 2 μg/mL) was 2.0 ± 1.2%; in data set [2] (CHO-PEACE8 transiently transfected with tetracycline-responsive control system, Tet 2 μg/mL), 2.2 ± 0.2%.
